Test results reported in ChEMBL document CHEMBL1144334, “Synthesis and structure-activity relationships of isoxazole carboxamides as growth hormone secretagogue receptor antagonists” (Bioorg Med Chem Lett, 2005).

How the values were obtained:
[1] = biological target: T1, Growth hormone secretagogue receptor type 1 (Homo sapiens, UniProt Q92847); assay: Inhibition of binding to human growth hormone secretagogue receptor
[2] = biological target: T1, Growth hormone secretagogue receptor type 1; assay: Inhibition of ghrelin-induced increase of intracellular [Ca2+] in CHO K cell FLIPR assay; format: functional, cell-based
Rattus norvegicus [3] = assay: Oral bioavailability in rat; format: functional, organism-based
Rattus norvegicus [4] = species: Rattus norvegicus; assay: Rate of metabolism measured in rat liver microsomes for 30 min

T1 sequence (Q92847 whole entry): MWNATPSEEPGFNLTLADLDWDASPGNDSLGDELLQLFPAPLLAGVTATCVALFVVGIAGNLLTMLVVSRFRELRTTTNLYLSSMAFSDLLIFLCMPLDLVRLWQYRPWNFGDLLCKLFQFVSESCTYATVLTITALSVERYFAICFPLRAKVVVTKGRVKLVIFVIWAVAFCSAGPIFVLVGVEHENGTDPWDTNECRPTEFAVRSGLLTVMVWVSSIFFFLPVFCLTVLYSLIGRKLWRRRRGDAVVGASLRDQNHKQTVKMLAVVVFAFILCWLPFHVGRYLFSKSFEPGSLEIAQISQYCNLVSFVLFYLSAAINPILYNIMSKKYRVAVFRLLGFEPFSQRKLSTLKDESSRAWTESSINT

SMILES	IC50 [1] [nM]	IC50 [2] [nM]	bioavailability (Rattus norvegicus [3]) [%]	Rate of metabolism (Rattus norvegicus [4]) [pM/mg/min]
CCN(CC)c1ccc(NC(=O)c2c(-c3ccccc3)noc2C)cc1	8200	7600		
Cc1onc(-c2c(Cl)cccc2Cl)c1C(=O)Nc1ccccc1C(=O)N1CCCCCC1	860	510		
Cc1onc(-c2c(Cl)cccc2Cl)c1C(=O)Nc1ccccc1C(=O)NCc1ccccc1	1200	10500		
CCN(CC)c1ccc(NC(=O)c2c(-c3ccccc3[N+](=O)[O-])noc2C)cc1	550	620		
CCN(CC)c1ccc(NC(=O)c2c(-c3ccccc3OC)noc2C)cc1	4000	6800		
O=C(Nc1ccccc1C(=O)N1CCCCC1)c1c(-c2c(Cl)cccc2Cl)noc1CCC1OCCCO1	7500	7400		
CCN(CC)c1ccc(NC(=O)c2c(-c3c(Cl)cccc3Cl)noc2C)cc1			4	800
CCN(CC)C(=O)c1ccccc1NC(=O)c1c(-c2c(Cl)cccc2Cl)noc1C	1900	2500		
Cc1onc(-c2c(Cl)cccc2Cl)c1C(=O)Nc1ccccc1C(=O)NCc1ccc2c(c1)OCO2	350	4900		
CCN(CC)c1ccc(NC(=O)c2c(-c3cccc(Cl)c3)noc2C)cc1	18500			
Cc1onc(-c2c(Cl)cccc2Cl)c1C(=O)Nc1ccc(N2CCCCC2)cc1	> 10000			
CCN(CC)c1ccc(NC(=O)c2c(-c3ccc(Cl)cc3)noc2C)cc1	7100	6000		
Cc1onc(-c2c(Cl)cccc2Cl)c1C(=O)Nc1ccccc1C(=O)N1CCCCC1	2200	2300		
CCN(CC)c1ccc(NC(=O)c2c(-c3ccccc3Br)noc2C)cc1	340	280		
CCN(CC)c1ccc(NC(=O)c2c(-c3c(Cl)cccc3Cl)noc2CCC2OCCCO2)cc1		14		
CCc1cc(N(CC)CC)ccc1NC(=O)c1c(-c2c(Cl)cccc2Cl)noc1C	370	41		
Cc1onc(-c2c(Cl)cccc2Cl)c1C(=O)Nc1ccccc1CC1c2ccccc2CCN1C (centres undefined)	980	1700		
CCN(CC)c1ccc(NC(=O)c2c(-c3ccccc3-c3ccccc3)noc2C)cc1	1300	6300		
CCN(CC)c1ccc(NC(=O)c2c(-c3c(Cl)cccc3Cl)noc2C)c(OC)c1	600	2900		
CCN(CC)c1ccc(NC(=O)c2c(-c3c(Cl)cccc3Cl)noc2CCC2OCCCO2)c(C)c1	9	10		
CCN(CC)c1ccc(NC(=O)c2c(-c3c(Cl)cccc3Cl)noc2C)c(C(F)(F)F)c1	4100	> 10000		
CCN(CC)c1ccc(NC(=O)c2c(-c3c(Cl)cccc3Cl)noc2C)c(C#N)c1	9000	4500		

The next lines start with results.

IC50 [1] [nM]	IC50 [2] [nM]	SMILES	bioavailability (Rattus norvegicus [3]) [%]	Rate of metabolism (Rattus norvegicus [4]) [pM/mg/min]
> 100	> 10000	CCN(CC)c1ccc(NC(=O)c2c(-c3c(Cl)cccc3Cl)noc2C)cc1C		
> 10000		CCN(CC)c1ccc(NC(=O)c2c(-c3c(Cl)cccc3Cl)noc2C)cc1Cl		
690	250	CCN(CC)c1ccc(NC(=O)c2c(-c3ccccc3Cl)noc2C)cc1		
5500	4700	CCN(C)c1ccc(NC(=O)c2c(-c3c(Cl)cccc3Cl)noc2C)cc1		
> 10000		CCC(CC)c1ccc(NC(=O)c2c(-c3c(Cl)cccc3Cl)noc2C)cc1		
> 10000		CCN(CC)Cc1ccc(NC(=O)c2c(-c3c(Cl)cccc3Cl)noc2C)cc1		
9200	3100	CCN(CCO)c1ccc(NC(=O)c2c(-c3c(Cl)cccc3Cl)noc2C)cc1		
> 10000		CCN(C(C)=O)c1ccc(NC(=O)c2c(-c3c(Cl)cccc3Cl)noc2C)cc1		
37	39	CCN(CC)c1ccc(NC(=O)c2c(-c3c(Cl)cccc3Cl)noc2C)c(C)c1	1	
410	510	CCCN(CC)c1ccc(NC(=O)c2c(-c3c(Cl)cccc3Cl)noc2C)cc1		
> 10000		CCNc1ccc(NC(=O)c2c(-c3c(Cl)cccc3Cl)noc2C)cc1		
